Measurements reported in patent publication US9663478B2, “Benzotriazine oxides as drugs targeting Mycobacterium tuberculosis” (priority 2011, dated 2017).
Values after ≈ are worked out from the molar mass of the structure shown.

What was measured:
Mtb H37Rv [1] = assay: TB MIC - ITR (UIC), Institute for Tuberculosis Research; type: cell-based, Mycobacterium tuberculosis; details: for TB MIC - UIC: Tables P1, P2; for MIC: Mycobacterium tuberculosis, H37RV, Tables 1-4, read-out: TB MIC - ITR
NRP Mtb H37Rv cells = assay: Low-oxygen recovery assay (LORA) MIC; type: cell-based, Mycobacterium tuberculosis; details: for LORA MIC: Tables P1, P2, non-replicating M. tuberculosis; for MIC: Mycobacterium tuberculosis, H37RV, NRP Mtb, Tables 1-4 and text, read-out: LORA MIC - ITR
in vitro = details: African green monkey, VERO Tox (CC50)
Mtb H37Rv [2] = assay: TB MIC - SRI, resazurin-based microplate assay; type: cell-based, Mycobacterium tuberculosis; details: Mycobacterium tuberculosis, H37RV, read-out: TB MIC - SRI
[3] = test system: Salmonella typhimurium tester strain TA98; assay: Salmonella/microsome plate incorporation assay (Ames screen), TA98; type: cell-based; details: for Mean revertants per plate: Salmonella typhimurium
Source text: (§1) A liability in developing any bioreductively-activated antimicrobial drug is the potential for mutagenicity. Because the basis for activity of these compounds is the generation of intermediate radical species, undesirable mutagenicity poses a risk, as has been documented for many classes of bioreductive drugs, including the BTO tirapazamine (TPZ).^19,20 The most convenient methodology for assessing the potential to induce genetic damage is to use the plate incorporation method with Salmonella typhimurium strains TA98 and TA100, commonly known as the Ames assay. The Salmonella tester strains have mutations in the histidine operon, a mutation that leads to defective lipopolysaccharide (rfa), and a deletion that covers genes involved in the synthesis of biotin (bio) and in the repair of ultraviolet-induced DNA damage (uvrB).^21,22 These mutations make the strains more permeable to many molecules and increase their susceptibility to the mutagenic effects of these molecules. Given that the hypothesized mechanism of the BTO compounds is to selectively form cytotoxic radical species in bacteria over mammalian cells, a microbial mutagenicity assay is not ideal, but was used to benchmark their activities in this assay. […] Individual plate counts and their means and standard deviations, along with the condition of the background lawn, are presented in SI Table 2.
(§2) Experimental compounds were screened for microbial mutagenicity activity using the plate incorporation method with Salmonella typhimurium tester strains TA98 and TA100, in the presence and absence of an Aroclor 1254-induced rat-liver metabolic activation system containing 10% S9 (MA). The presence of the appropriate genetic characteristics was verified for the strains used in this study. Stock solutions were made by dissolving each test sample in dimethyl sulfoxide (DMSO) at 5 mg/ml. These initial stock concentrations were then serially diluted to achieve dose formulations of 100, 50, 10, 5, 1, 0.5, and 0.1 μg/plate (dosing volume 100 μl). Test plates were compared with the control plates for their revertant count and for the condition of the background bacterial lawn. A test article was considered a mutagen when the mean number of revertant colonies on the test plates exceeds the mean solvent control counts by at least a two-fold margin. Dose relatedness was also taken into account when evaluating a mutagenic response. Cytotoxicity was estimated by several parameters: a substantial decrease in the number of revertant colonies on the test plates, clearing or absence of the background bacterial lawn growth, formation of pinpoint nonrevertant colonies, or complete absence of bacterial growth.

[4] = test system: Salmonella typhimurium tester strain TA100; assay: Salmonella/microsome plate incorporation assay (Ames screen), TA100; type: cell-based
Source text: as §1, §2

Vero cells = details: African green monkey, 72 h
[5] = TA100, with metabolic activation (10% S9), 0.1 μg per plate
[6] = TA100, with metabolic activation (10% S9), 0.5 μg per plate
[7] = TA100, with metabolic activation (10% S9), 1 μg per plate
[8] = TA100, with metabolic activation (10% S9), 5 μg per plate
[9] = TA100, with metabolic activation (10% S9), 10 μg per plate
[10] = TA100, with metabolic activation (10% S9), 50 μg per plate
[11] = TA100, with metabolic activation (10% S9), 100 μg per plate
[12] = TA100, without metabolic activation, 0.1 μg per plate
[13] = TA100, without metabolic activation, 0.5 μg per plate
[14] = TA100, without metabolic activation, 1 μg per plate
[15] = TA100, without metabolic activation, 5 μg per plate
[16] = TA100, without metabolic activation, 10 μg per plate
[17] = TA100, without metabolic activation, 50 μg per plate
[18] = TA100, without metabolic activation, 100 μg per plate
[19] = TA100, with metabolic activation (10% S9), 2 μg per plate, positive control

[O-][n+]1nc(NC2CCCC2)[n+]([O-])c2ccccc21 [SRI-012265]
TB MIC - UIC (Mtb H37Rv [1]): 3.58 µg/mL
LORA MIC (NRP Mtb H37Rv cells): 0.68 µg/mL
CC50 at 72 h (in vitro): 10.4 µg/mL (≈ 42.2 µM)

CC(=O)Nc1cc(/C=C/c2ccc([N+](=O)[O-])o2)ns1 [Cmpd 2]
MIC (Mtb H37Rv [1]): 3.8 µg/mL (≈ 13.6 µM)
MIC (NRP Mtb H37Rv cells): 3.7 µg/mL (≈ 13.2 µM)
CC50 at 72 h (in vitro): > 50 µg/mL
MIC (Mtb H37Rv [2]; Tables 1-4 and text): 0.98 µg/mL (≈ 3.51 µM)

[O-][n+]1nc(NC2CCC2)[n+]([O-])c2ccccc21 [SRI-012260]
TB MIC - UIC (Mtb H37Rv [1]): 0.94 µg/mL
LORA MIC (NRP Mtb H37Rv cells): 0.84 µg/mL
CC50 at 72 h (in vitro): 8.9 µg/mL (≈ 38.3 µM)
MIC (Mtb H37Rv [2]; Tables P1-P3): 1.25 µg/mL (≈ 5.38 µM)

[O-][n+]1nc(NC2CCCCCC2)[n+]([O-])c2ccccc21 [SRI-012256]
TB MIC - UIC (Mtb H37Rv [1]): 1.64 µg/mL
LORA MIC (NRP Mtb H37Rv cells): 0.5 µg/mL
CC50 at 72 h (in vitro): 7.9 µg/mL (≈ 28.8 µM)

CCNc1n[n+]([O-])c2cc3c(cc2[n+]1[O-])CCC3 [Compound 15fa, 3-(ethylamino)-7,8-dihydro-6H-indeno[5,6-e][1,2,4]triazine 1,4-dioxide]
MIC (Mtb H37Rv [1]): 0.95 µg/mL (≈ 3.86 µM)
MIC (NRP Mtb H37Rv cells): 0.83 µg/mL (≈ 3.37 µM)
number of revertant colonies, TA98 [3]: dose-related increases in the number of revertant colonies
Mean revertants per plate ([3]; 0.1 μg per plate): 21.0
Mean revertants per plate ([3]; 0.1 μg/plate): 35.5
Mean revertants per plate ([3]; 0.5 μg per plate): 19.0
Mean revertants per plate ([3]; 0.5 μg/plate): 36.0
Mean revertants per plate ([3]; 1 μg per plate): 26.0
Mean revertants per plate ([3]; 1 μg/plate): 30.5
Mean revertants per plate ([3]; 5 μg per plate): 47.0
Mean revertants per plate ([3]; 5 μg/plate): 37.0
Mean revertants per plate ([3]; 10 μg per plate): 52.0
Mean revertants per plate ([3]; 10 μg/plate): 45.0
Mean revertants per plate ([3]; 50 μg per plate): 142.5
Mean revertants per plate ([3]; 50 μg/plate): 141.0
Mean revertants per plate ([3]; 100 μg per plate): 345.0
Mean revertants per plate ([3]; 100 μg/plate): 215.5
Ratio treated/solvent ([3]; TA98, with metabolic activation (10% S9), 0.1 μg per plate): 1.0
Ratio treated/solvent ([3]; TA98, with metabolic activation (10% S9), 0.5 μg per plate): 1.0
Ratio treated/solvent ([3]; TA98, with metabolic activation (10% S9), 1 μg per plate): 0.9
Ratio treated/solvent ([3]; TA98, with metabolic activation (10% S9), 5 μg per plate): 1.0
Ratio treated/solvent ([3]; TA98, with metabolic activation (10% S9), 10 μg per plate): 1.5
Ratio treated/solvent ([3]; TA98, with metabolic activation (10% S9), 50 μg per plate): 4.0
Ratio treated/solvent ([3]; TA98, with metabolic activation (10% S9), 100 μg per plate): 9.7
Ratio treated/solvent ([3]; TA98, without metabolic activation, 0.1 μg per plate): 0.8
Ratio treated/solvent ([3]; TA98, without metabolic activation, 0.5 μg per plate): 0.7
Ratio treated/solvent ([3]; TA98, without metabolic activation, 1 μg per plate): 1.0
Ratio treated/solvent ([3]; TA98, without metabolic activation, 5 μg per plate): 1.8
Ratio treated/solvent ([3]; TA98, without metabolic activation, 10 μg per plate): 1.8
Ratio treated/solvent ([3]; TA98, without metabolic activation, 50 μg per plate): 5.5
Ratio treated/solvent ([3]; TA98, without metabolic activation, 100 μg per plate): 8.5
Mean revertants per plate [4, 5]: 145.5
Ratio treated/solvent [4, 5]: 0.9
Mean revertants per plate [4, 6]: 148.5
Ratio treated/solvent [4, 6]: 0.9
Mean revertants per plate [4, 7]: 185.0
Ratio treated/solvent [4, 7]: 1.1
Mean revertants per plate [4, 8]: 207.0
Ratio treated/solvent [4, 8]: 1.2
Mean revertants per plate [4, 9]: 298.5
Ratio treated/solvent [4, 9]: 1.8
Mean revertants per plate [4, 10]: 854.5
Ratio treated/solvent [4, 10]: 5.1
Mean revertants per plate [4, 11]: 1450.0
Ratio treated/solvent [4, 11]: 8.6
Mean revertants per plate [4, 12]: 127.0
Ratio treated/solvent [4, 12]: 0.8
Mean revertants per plate [4, 13]: 137.0
Ratio treated/solvent [4, 13]: 0.8
Mean revertants per plate [4, 14]: 150.5
Ratio treated/solvent [4, 14]: 0.9
Mean revertants per plate [4, 15]: 259.0
Ratio treated/solvent [4, 15]: 1.6
Mean revertants per plate [4, 16]: 299.5
Ratio treated/solvent [4, 16]: 1.8
Mean revertants per plate [4, 17]: 913.5
Ratio treated/solvent [4, 17]: 5.6
Mean revertants per plate [4, 18]: 1268.0
Ratio treated/solvent [4, 18]: 7.8
number of revertant colonies, TA100 ([4]; presence and absence of metabolic activation): dose-related increases in the number of revertant colonies

CCC(COC)Nc1n[n+]([O-])c2ccccc2[n+]1[O-] (stereo not drawn) [Compound 8i, 3-((1-methoxybutan-2-yl)amino)benzo[e][1,2,4]triazine 1,4-dioxide]
MIC (Mtb H37Rv [1]): 6.6 µg/mL (≈ 25 µM)
MIC (NRP Mtb H37Rv cells): 4.9 µg/mL (≈ 18.5 µM)
CC50 at 72 h (in vitro): > 50 µg/mL
MIC (Mtb H37Rv [2]; Tables 1-4 and text): 10 µg/mL (≈ 37.8 µM)

CC(C)CC(C)Nc1n[n+]([O-])c2ccccc2[n+]1[O-] (stereo not drawn) [SRI-012263]
TB MIC - UIC (Mtb H37Rv [1]): 1.98 µg/mL
LORA MIC (NRP Mtb H37Rv cells): 0.83 µg/mL
CC50 at 72 h (in vitro): 11.7 µg/mL (≈ 44.6 µM)
MIC (Mtb H37Rv [2]; Tables P1-P3): 2.5 µg/mL (≈ 9.53 µM)

CC(C)(C)C1CCC(Nc2n[n+]([O-])c3ccccc3[n+]2[O-])CC1 (stereo not drawn) [SRI-012257]
TB MIC - UIC (Mtb H37Rv [1]): 0.22 µg/mL
LORA MIC (NRP Mtb H37Rv cells): < 0.125 µg/mL
CC50 at 72 h (in vitro): 2.3 µg/mL (≈ 7.27 µM)
MIC (Mtb H37Rv [2]; Tables P1-P3): 0.625 µg/mL (≈ 1.98 µM)

[N-]=[N+]=[N-].[Na+] [SA]
Mean revertants per plate [4, 15]: 1620.0
Ratio treated/solvent [4, 15]: 10.0

CCCC(C)Nc1n[n+]([O-])c2ccccc2[n+]1[O-] (stereo not drawn) [SRI-012258]
TB MIC - UIC (Mtb H37Rv [1]): 1.95 µg/mL
LORA MIC (NRP Mtb H37Rv cells): 0.99 µg/mL
CC50 at 72 h (in vitro): 26.3 µg/mL (≈ 106 µM)

[O-][n+]1nc(NC2CC2)[n+]([O-])c2ccccc21 [SRI-012255]
TB MIC - UIC (Mtb H37Rv [1]): 1.82 µg/mL
LORA MIC (NRP Mtb H37Rv cells): 1.76 µg/mL
CC50 at 72 h (in vitro): 20.7 µg/mL (≈ 94.9 µM)

Nc1ccc2cc3ccccc3cc2c1 [Compound 2AN]
Ratio treated/solvent ([3]; TA98, with metabolic activation (10% S9), 2 μg per plate, positive control): 15.3
Mean revertants per plate [4, 19]: 490.0
Ratio treated/solvent [4, 19]: 2.9

[O-][n+]1nc(NC2CCCCC2)[n+]([O-])c2ccccc21 [SRI-012266]
TB MIC - UIC (Mtb H37Rv [1]): 3.77 µg/mL
LORA MIC (NRP Mtb H37Rv cells): 0.75 µg/mL
CC50 at 72 h (in vitro): 8.9 µg/mL (≈ 34.2 µM)

[O-][n+]1nc(NC2CCCC2)[n+]([O-])c2ccccc21 [Compound 8e, 3-(cyclopentylamino)benzo[e][1,2,4]triazine 1,4-dioxide]
Vero Tox CC50 (Vero cells): 10 µg/mL
MIC (Mtb H37Rv [1]): 3.6 µg/mL (≈ 14.6 µM)
MIC (NRP Mtb H37Rv cells): 0.68 µg/mL (≈ 2.76 µM)
MIC (Mtb H37Rv [2]; Tables 1-4 and text): 2.5 µg/mL (≈ 10.2 µM)

CCNc1n[n+]([O-])c2cc(F)ccc2[n+]1[O-] [SRI-012284]
VERO Tox-SRI (Vero cells): 4.6
TB MIC - UIC (Mtb H37Rv [1]): 0.35 µg/mL
LORA MIC (NRP Mtb H37Rv cells): 0.75 µg/mL
MIC (Mtb H37Rv [2]; Tables P1-P3): 0.625 µg/mL (≈ 2.79 µM)
